The test system of assay [1] is patients with diabetic nephropathy. Briefly: Double-blind, randomised, placebo-controlled study of 24-hour proteinuria on top of high-dose ARB.
Method: The study was double-blind, randomised, and placebo-controlled. […] Patients were included if at the end of the 4-week treatment period with high-dose ARBs, their 24-hour proteinuria was >300 mg/24 h. They were randomised into 3 groups: 20 mg of compound A, 50 mg of compound A, or placebo once daily, on top of the high dose ARB. Treatment duration was 4 weeks. The primary variable was 24-hour proteinuria.
Out of the 23 randomised patients, 7 received compound A 20 mg, 8 received compound A 50 mg and 8 received placebo. The mean age (±SD) was similar for all 3 groups. The HbA1c level at entry was also similar for all 3 groups.
In assay [2] the test system is patients with type 2 diabetes and nephropathy. The conditions noted are these: literature studies (N Engl J Med 2001); correlating with reduction in onset of end-stage renal disease, no change in mortality rates; cited from earlier work.

Data on 3 compounds can be found in US20060094731A1, “New medicament” (priority 2003, published 2006).

Molecules are shown by their SMILES.

Turning to `COc1ccccc1Oc1c(NS(=O)(=O)c2ccc(C)cn2)nc(-c2ccncc2)nc1OC` [compound A], the “decrease in 24-hour proteinuria” value in assay [1] (compound A 50 mg once daily, 4 weeks, on top of high-dose ARB, mean ± SD, 8 patients) is −1.3±1.3 g/24 h. Besides, the “mean decrease in 24-hour proteinuria” value in assay [1] (the 2 groups treated with compound A (20 mg and 50 mg), summary statement, called clinically relevant) is given as “around 1 g/24 h”.
On to `CCCCC1=NC2(CCCC2)C(=O)N1Cc1ccc(-c2ccccc2-c2nnn[nH]2)cc1` [irbesartan], for which, in assay [2], the effect on proteinuria entry is given as “decrease in proteinuria”.
On to `CCCCc1nc(Cl)c(CO)n1Cc1ccc(-c2ccccc2-c2nn[nH]n2)cc1` [losartan], for which the effect on proteinuria entry in assay [2] is given as “decrease in proteinuria”.
